Columns and labels:
Format in all cases: in vivo, human
[1] = test system: borderline diabetic patients; assay: Changes in blood glucose and blood insulin levels after fasting, absence of glucose load (Test Example 3); details: fasted, 10 mg; for I: blood insulin level: unit assumed
Method: Three borderline diabetic patients (person, person and person) were instructed to fast from 8:00 pm (to ensure absence of glucose load), and were administered a placebo once or the test agent (corosolic acid) once at 9:00 am on the following day, after which the changes in blood glucose levels and blood insulin levels were measured. The test subjects were given absolutely no information regarding placebo or test agent (crossover, double-blind). The corosolic acid was administered in a single 10 mg dose, and each test was conducted twice.
FIG. 3 is a graph showing changes in blood glucose levels with administration of corosolic acid and a placebo in the absence of a glucose load, and FIG. 4 is a graph showing changes in blood insulin levels with administration of corosolic acid and a placebo in the absence of a glucose load.

test subjects = assay: Glucose tolerance test after administration of corosolic acid, banaba extract or placebo, blood glucose level assayed (Test Example 2); details: 10 mg oral, 75 g glucose load, p<0.05, 35 subjects
Method: The following test was conducted to confirm that corosolic acid has a hypoglycemic effect. A glucose tolerance test was performed after administration of corosolic acid, banaba extract or a placebo, in a double-blind crossover manner, and the blood glucose level (plasma glucose concentration) was assayed.
(§1) First, 35 test subjects were orally administered corosolic acid (10 mg, ≧99% purity), banaba extract (trade name: COROSOLIA M, product of Use Techno Corporation; administered at 10 mg of corosolic acid) or a placebo, and blood was sampled immediately thereafter with the blood glucose level at that time designated as the value at 0 minutes. Immediately after blood sampling, 75 g of glucose was orally administered to each test subject to start a glucose tolerance test, and blood was sampled after periods of 30 minutes, 60 minutes, 90 minutes, 120 minutes and 180 minutes for measurement of the blood glucose level.
FIG. 2 is a graph showing blood glucose levels during the glucose tolerance test. The horizontal axis represents time (min) after start of the glucose tolerance test, and the vertical axis represents plasma glucose concentration (mg/dL). In the graph, (c) is a case with administration of corosolic acid, (d) is a case with administration of banaba leaf extract and (e) is a case with administration of the placebo.

[2] = test system: borderline diabetic patients; assay: Glucose tolerance test after administration of corosolic acid or placebo, blood insulin level (IRI) assayed (Test Example 1); details: 10 mg oral, 75 g glucose load, p<0.05, 31 patients
Method: A glucose tolerance test was performed after administration of corosolic acid or a placebo, in a double-blind crossover manner, and the blood insulin level (IRI: immunoreactive insulin) was assayed.
as §1, with “First, 31 borderline diabetic patients as” for “First, 35”, “≧99% purity)” for “≧99% purity), banaba extract (trade name: COROSOLIA M, product of Use Techno Corporation; administered at 10 mg of corosolic acid)”, “blood insulin” for “blood glucose”
FIG. 1 is a graph showing the blood insulin levels during the glucose tolerance test. The horizontal axis represents time (min) after start of the glucose tolerance test, and the vertical axis represents IRI (μU/mL). In the graph, (a) is a case with administration of corosolic acid and (b) is a case with administration of the placebo.

[3] = 120 minutes after start of glucose tolerance test

C[C@H]1[C@H](C)CC[C@]2(C(=O)O)CC[C@]3(C)C(=CC[C@@H]4[C@@]5(C)C[C@@H](O)[C@H](O)C(C)(C)[C@@H]5CC[C@]43C)[C@H]12 [corosolic acid]
G: blood glucose level ([1]; test subject A, after 0 min): 110 mg/dL | I: blood insulin level ([1]; test subject A, after 0 min): 9 µU/mL | I: blood insulin level ([1]; test subject A, after 30 min): 6.9 µU/mL | I: blood insulin level ([1]; test subject A, after 60 min): 6.6 µU/mL | I: blood insulin level ([1]; test subject A, after 90 min): 5.9 µU/mL | I: blood insulin level ([1]; test subject A, after 120 min): 6.6 µU/mL | I: blood insulin level ([1]; test subject A, after 180 min): 5.1 µU/mL | I: blood insulin level ([1]; test subject B, after 0 min): 2.5 µU/mL | I: blood insulin level ([1]; test subject B, after 30 min): 2.6 µU/mL | I: blood insulin level ([1]; test subject B, after 60 min): 3 µU/mL | I: blood insulin level ([1]; test subject B, after 90 min): 2 µU/mL | G: blood glucose level ([1]; test subject B, after 120 min): 150 mg/dL | I: blood insulin level ([1]; test subject B, after 120 min): 3.4 µU/mL | I: blood insulin level ([1]; test subject B, after 180 min): 2.4 µU/mL | G: blood glucose level ([1]; test subject C, after 0 min): 90 mg/dL | I: blood insulin level ([1]; test subject C, after 0 min): 4.5 µU/mL | G: blood glucose level ([1]; test subject C, after 30 min): 90 mg/dL | I: blood insulin level ([1]; test subject C, after 30 min): 4.1 µU/mL | G: blood glucose level ([1]; test subject C, after 60 min): 88 mg/dL | I: blood insulin level ([1]; test subject C, after 60 min): 3.9 µU/mL | G: blood glucose level ([1]; test subject C, after 90 min): 86 mg/dL | I: blood insulin level ([1]; test subject C, after 90 min): 4.9 µU/mL | G: blood glucose level ([1]; test subject C, after 120 min): 86 mg/dL | I: blood insulin level ([1]; test subject C, after 120 min): 4 µU/mL | G: blood glucose level ([1]; test subject C, after 180 min): 81 mg/dL | I: blood insulin level ([1]; test subject C, after 180 min): 4 µU/mL | blood glucose level compared to placebo (test subjects; 90 minutes after start of glucose tolerance test): significant decrease | blood glucose level compared to placebo (test subjects; [3]): significant decrease | blood insulin level compared to placebo ([2]; 30 minutes after start of glucose tolerance test): significant increase | blood insulin level compared to placebo [2, 3]: significant drop

Reference: patent publication US20070093552A1, “Early insulin secretion stimulator” (priority 2003, published 2007)
